Columns and labels:
[1] = Solubility of DPCP in solvents for gel and ointment formulations; type: physicochemical
Experimental: (§1) The compatibility and solubility of DPCP was determined in both isopropyl myristate (IPM) as well as Polysorbate 80 (PS80). […] Next, the stability of DPCP in these solvents was determined. A solution of 0.4% DPCP in isopropyl myristate and a solution of 0.4% DPCP in Polysorbate 80 was placed at 50° C. for two weeks. The stability of DPCP in these solvents was determined using reverse phase HPLC on a C18 column.

[2] = Stability of 0.4% DPCP solutions in solvents at 50° C., reverse phase HPLC on a C18 column; type: physicochemical
Experimental: as §1
For the development of a gel, the stability of DPCP was determined in both Ethanol (ETOH) and Isopropanol (IPA) was determined (0.4% DPCP solutions in each solvent was placed at 50° C. for two weeks; FIG. 3. All solutions contained 0.1% BHT). […] However, DPCP was stable in IPA. The stability of DPCP in the above solvents was determined using reverse phase HPLC on a C18 column.

With `O=c1c(-c2ccccc2)c1-c1ccccc1` [DPCP, Diphenylcyclopropenone] the “solubility of DPCP in PS80” value ([1]; Polysorbate 80 (PS80)) was “highly soluble”, the “solubility of DPCP in IPM” value ([1]; isopropyl myristate (IPM)) was “about 1.1 % w/w” and the “stability of DPCP in PS80” value ([2]; 0.4% DPCP in Polysorbate 80, 50° C., two weeks) was “some degradation”. The “stability of DPCP in ETOH” value ([2]; 0.4% DPCP in ethanol, 0.1% BHT, in the presence of citric acid, 50° C., two weeks) was “Some degradation”, the “stability of DPCP in IPA” value ([2]; 0.4% DPCP in isopropanol, 0.1% BHT, 50° C., two weeks) was “stable” and the “stability of DPCP in IPM” value ([2]; 0.4% DPCP in isopropyl myristate, 50° C., two weeks) was “stable”. The “effect of BHT on degradation of DPCP in PS80” value ([2]; PS80 with butylated hydroxytoloune (BHT)) was “reduce the amount of degradation”.

Reference: patent US20190029974A1, “METHODS FOR TREATING SKIN DISORDERS AND CONDITIONS UTILIZING HAPTENS” (RXi Pharmaceuticals Corporation, priority 2015, published 2019)
